From patent publication US20240299393A1, “SMALL MOLECULE DISRUPTORS OF PROTEIN INTERACTIONS IN HISTONE DEACETYLASE COMPLEXES” (Dana-Farber Cancer Institute, Inc., priority 2021, published 2024)
Entries after “also recorded” stand apart in the source; their conditions may differ.

Columns and labels:
human SIN3A PAH2 domain = target: T1, human SIN3A PAH2 domain (Homo sapiens, UniProt Q96ST3); assay: Ligand-detected NMR, human SIN3A PAH2; type: binding, H. sapiens; settings: 300 μM compound, 10 μM protein
T1 construct: Residues 301-390 of human SIN3A (PAH2 domain) were inserted into the pMALC2XE vector for NMR experiments; made in house; host or cells: E. coli BL21 (DE3)
T1 sequence (Q96ST3 301-390): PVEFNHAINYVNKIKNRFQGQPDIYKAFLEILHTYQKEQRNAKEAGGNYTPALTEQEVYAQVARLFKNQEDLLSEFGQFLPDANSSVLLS
Experimental: Ligand-detected NMR experiments: all results were acquired using a 3 mm tube at 25° C. on a Bruker 600 MHz Avance II system equipped with a CPPTCI cryoprobe (Bruker BioSpin Corp.). In all experiments, the concentration of E6R was fixed at 300 μM (from a stock of 25 mM in deuterated DMSO) and the concentration of the protein at 10 μM. The volume of deuterated DMSO was kept constant (1.5%) in all tested samples. Right before the experiments, the compound and protein were diluted in 1×PBS containing 0.1% deuterated dithiothreitol (DTT) to a total volume of 200 μL. Samples were diluted by 5% with D2O for magnetic field lock. Spectra were acquired for ligand only, protein only, and ligand+protein. […] STD experiments [Mayer et al 2001] were acquired with 160 scans, with protein irradiation applied for 3 s at 0 ppm and −20 ppm for the on and off resonance experiments, respectively. On and off resonance spectra were collected and stored separately. One-dimensional CPMG-R2 edited experiments [Hajduk et al 1997] were collected for samples with and without proteins using seven CPMG delays (0, 25, 50, 100, 300, 500, and 800 ms) with four scans per delay. Proton spectra used to measure DLB and chemical shift perturbations in the absence and presence of the proteins were recorded with 16 scans using a recycle delay of 3 s. […]

[1] = target: T2, PAH2 domain of mouse M. musculus SIN3B (Mus musculus, UniProt Q62141, C241A); assay: Ligand-detected NMR, mouse SIN3B PAH2; type: binding
T2 construct: M. musculus SIN3B PAH2 C241A (residues 148-252) expressing plasmid; GST (cleaved yes); made in house; host or cells: E. coli BL21 (DE3), minimal medium with 15N-ammonium chloride and 13C-glucose
T2 sequence (Q62141 148-252 C241A): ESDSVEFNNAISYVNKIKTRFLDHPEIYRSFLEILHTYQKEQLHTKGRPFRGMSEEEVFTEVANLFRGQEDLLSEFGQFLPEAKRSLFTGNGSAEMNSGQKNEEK
Experimental: Expression of mouse ^13C/^15N SIN3B PAH2: the same M. musculus SIN3B PAH2 C241A (residues 148-252) expressing plasmid as reported by [Kumar et al 2011] was used here. The construct was overexpressed in E. coli BL21 (DE3) in 1 L of minimum medium supplemented with 1 g 15N-ammonium chloride (Cambridge Isotope Laboratories) and 2 g 13C-glucose (Cambridge Isotope Laboratories). Cells were grown at 37° C. to an OD of 0.8, cooled to 17° C., induced with 500 μM isopropyl-1-thio-D-galactopyranoside, incubated overnight at 17° C., collected by centrifugation, and stored at −80° C. 13C/15N-double labeled protein was purified as for other GST-fused constructs. The GST tag was cleaved as described above.
Ligand-detected NMR experiments: all results were acquired using a 3 mm tube at 25° C. on a Bruker 600 MHz Avance II system equipped with a CPPTCI cryoprobe (Bruker BioSpin Corp.). In all experiments, the concentration of E6R was fixed at 300 μM (from a stock of 25 mM in deuterated DMSO) and the concentration of the protein at 10 μM. The volume of deuterated DMSO was kept constant (1.5%) in all tested samples. […] Proton spectra used to measure DLB and chemical shift perturbations in the absence and presence of the proteins were recorded with 16 scans using a recycle delay of 3 s. […]

[2] = system: DOI-induced head-twitch response (HTR); assay: DOI-induced head-twitch response assay; type: in vivo, mouse
Text: Adult male C57BL/6N mice (10-12 weeks old) purchased from Taconic laboratories (Bar Arbor, ME), and C57BL/6N Hdac2 cKO inhouse bred male mice (described previously in Ibi et al 2017) were used for the experimental groups (vehicle and E6R). For assays including Hdac2 cKO mice, we bred homozygous Hdac2loxPAoxP mice to the CaMKIIα-Cre transgenic line and used the Hdac2loxP/loxP:CaMKIIα-Cre (Hdac2 cKO) mice and control littermates. All animals were housed in groups of 5-6 in 500 cm^2 Plexiglas cages (Allentown, NJ) in the animal care facilities at 12 h light/dark cycle (lights on, 8:00 to 20:00) at 23° C. with food and water ad libitum. Cages contained bedding (Teklad ¼″ Corncob bedding, Envigo) and one Nestlests™ (Ancare, Bellmore, NY, USA). […] For the Hdac2 cKO group (n=5), an intraperitoneal injection (2 mg/kg; 10 μL/g) of the psychedelic drug (±)-2,5-dimethoxy-4-iodoamphetamine (DOI) (Sigma Aldrich) was delivered and HTR recorded and quantified. […] 24 h after the last injection, DOI (2 mg/kg; 10 μL/g) was injected and HTR subsequently recorded and quantified. […] HTR were recorded during both habituation and post-DOI administration for 30 min and quantified in 15 min bins. […] 24 h after the last injection, both groups received 2 mg/kg DOI, and HTR was recorded for each group as described above. […]

## C[C@@H](NC(=O)c1c(O)n2ccccc2nc1=O)c1ccccc1 [E6R, 4-hydroxy-2-oxo-N—((R)-1-phenylethyl)-3,4-dihydro-2H-pyrido[, 2-a]pyrimidine-3-carboxamide]
Human SIN3A PAH2 domain
  binding to human SIN3A PAH2 by NMR: could bind; also recorded: virtually identical to those of yeast Sin3 PAH2
[1]
  binding to mouse SIN3B PAH2 by NMR: virtually identical to those of yeast Sin3 PAH2
[2]; HDAC2 cKO mice, 50 mg/kg chronic, vs untreated HDAC2 cKO
  DOI-induced HTR: no additive effect
[2]; WT mice, 50 mg/kg chronic 10 days, DOI 2 mg/kg
  DOI-induced HTR: significantly reduced
